Measured values published in patent publication US5258406A, “Sulfonimidamides” (priority 1992, dated 1993).
Values joined by “and” are separate entries in the source; they are usually repeats but may differ in a detail not shown here. Identical values can stand only once. Like-named read-outs stand apart in the source and are kept apart here.

Tested on: 6C3HED lymphosarcoma
Assay: animal or person
Type: in vivo
Procedure: The compounds were tested in C3H mice bearing a 6C3HED lymphosarcoma, also known as the Gardner lymphosarcoma (GLS), and in a variety of human tumor xenografts in CD1 nu/nu mice, including CX-1, LX-1, HXGC3, and VRC5. The 6C3HED lymphosarcoma was obtained from the Division of Cancer Treatment, National […] Institute, Tumor Bank, maintained at E. G. and G. Mason Research (Worcester, Mass.). The CX-1 human colon carcinoma and the LX-1 human lung carcinoma xenografts were obtained from the National Cancer Institute. The HXGC3 and VRC5 human colon xenografts were obtained from Dr. P. J. Houghton, St. Jude Children's Hospital in Memphis (see Br. J. Cancer, 37, 213 (1978)). First passage tumor was stored in liquid nitrogen using standard techniques. The transplanted tumor was reestablished from the Tumor Bank every six months or as needed. The tumor was maintained by serial passage twice weekly in C3H mice.
In the procedure the tumor was removed from passage animals and minced into 1- to 3-mm square fragments using sterile techniques. Tumor pieces were checked for sterility using both Antibiotic Medium 1 and Brain Heart Infusion (Difco, Detroit, Mich.). Recipient mice were shaved and tumor pieces were implanted subcutaneously in the auxiliary region by trocar. Drug therapy on the appropriate schedule was initiated on the day after tumor implant for 6C3HED and after a seven (7) day delay for xenografts (or other delay as noted in Table 2). The compound being tested was mixed with 2.5% Emulphor EL620 from GAF Corporation (1:40 dilution in saline). Food and water were provided ad libitium. The drug was administered orally in 0.5 ml of 2.5% Emulphor (unless otherwise indicated). The tumor was measured the day after treatment ended with two dimensional measurements (width and length) of the tumor taken using automated digital calipers interfaced to a microcomputer. Approximate weight for the tumor was calculated using the following formula [Worzalla, J. F., et al., Invest. New Drugs, 8, 241 (1990], (tumor weight in mg)=(width in mm)^2 ×(length in mm)/2.
At least one control group of an equal number of mice was treated with the same volume of 2.5% Emulphor only. The percent inhibition was determined by subtracting the ratio of the mean tumor size of the test group relative to the control group from one and multiplying the result times 100.
The results of several experiments in mice bearing a 6C3HED lymphosarcoma (or other tumor where indicated) when the indicated compounds were administered are provided in Table 2. In Table 2, column 1 gives the Example number of the compound used, column 2 lists the dose level in mg/kg, column 3 provides the percent inhibition of tumor growth, column 4 gives the number of mice which died relative to the total number of animals in the group, column 5 gives the method of administration of the compound, and column 6 gives the dosage schedule. The protocol used with other tumors was the same as with the 6C3HED lymphosarcoma.

[1] = Mus musculus, 6C3HED, po, read-out: % inhibition of tumor growth, oral, 150 mg/kg, BIDX 8
[2] = Mus musculus, 6C3HED, po, read-out: % inhibition of tumor growth, oral, 300 mg/kg, BIDX 8
[3] = Mus musculus, 6C3HED, ip, read-out: % inhibition of tumor growth, IP, 300 mg/kg, DX 8
[4] = Mus musculus, 6C3HED, po, read-out: % inhibition of tumor growth, oral, 150 mg/kg, DX 8
[5] = Mus musculus, 6C3HED, po, read-out: % inhibition of tumor growth, oral, 300 mg/kg, DX 8

CNS(=O)(=NC(=O)N(C)c1ccc(Cl)cc1)c1ccc(C)cc1 (stereo not shown) [Example 65]
inhibition in vivo at 150 mg/kg [1]: 91% | inhibition in vivo at 300 mg/kg [2]: 97% | Tox/Tot (mice which died / total) (oral, 150 mg/kg, BIDX 8): 0/10 | Tox/Tot (mice which died / total) (oral, 300 mg/kg, BIDX 8): 0/10

Cc1cc(C)cc(S(N)(=O)=NC(=O)Nc2ccc(Cl)cc2)c1 (stereo not shown) [Example 39]
inhibition in vivo at 100 mg/kg (Mus musculus, 6C3HED, po, read-out: % inhibition of tumor growth, oral, 100 mg/kg, BIDX 8): 44% | inhibition in vivo at 200 mg/kg (Mus musculus, 6C3HED, po, read-out: % inhibition of tumor growth, oral, 200 mg/kg, BIDX 8): 77% | Tox/Tot (mice which died / total) (oral, 100 mg/kg, BIDX 8): 0/10 | Tox/Tot (mice which died / total) (oral, 200 mg/kg, BIDX 8): 0/10

Cc1ccc(S(=O)(=NC(=O)Nc2ccc(Cl)cc2)N(C)C)cc1 (stereo not shown) [Example 18]
Tox/Tot (mice which died / total) (IP, 300 mg/kg, DX 8): 4/8 | Tox/Tot (mice which died / total) (IP, 600 mg/kg, DX 8): 6/8 | inhibition in vivo at 300 mg/kg [3]: 93% | inhibition in vivo at 600 mg/kg (Mus musculus, 6C3HED, ip, read-out: % inhibition of tumor growth, IP, 600 mg/kg, DX 8): 99% | inhibition in vivo at 150 mg/kg [4]: 45% | inhibition in vivo at 300 mg/kg [5]: 63% | Tox/Tot (mice which died / total) (oral, 150 mg/kg, DX 8): 0/10 | Tox/Tot (mice which died / total) (oral, 300 mg/kg, DX 8): 0/10

Cc1ccc(S(=O)(=NC(=O)Nc2ccc(Cl)cc2)NCc2ccccc2)cc1 (stereo not shown) [Example 12]
inhibition in vivo at 150 mg/kg [1]: 73% | inhibition in vivo at 300 mg/kg [2]: 87% | Tox/Tot (mice which died / total) (oral, 150 mg/kg, BIDX 8): 0/9 | Tox/Tot (mice which died / total) (oral, 300 mg/kg, BIDX 8): 1/10

CC(=O)N(C(=O)N=[S+]([O-])(c1ccc(C)cc1)N(C)C(C)=O)c1ccc(Cl)cc1 (stereo not shown) [Example 17]
inhibition in vivo at 150 mg/kg [1]: 83% | inhibition in vivo at 300 mg/kg [2]: 96% | Tox/Tot (mice which died / total) (oral, 150 mg/kg, BIDX 8): 0/10 | Tox/Tot (mice which died / total) (oral, 300 mg/kg, BIDX 8): 0/10

CC(=O)N(C)S(=O)(=NC(=O)Nc1ccc(Cl)cc1)c1ccc(C)c(C)c1 (stereo not shown) [Example 63]
inhibition in vivo at 25 mg/kg (Mus musculus, 6C3HED, po, read-out: % inhibition of tumor growth, oral, 25 mg/kg, DX 8): 79% | inhibition in vivo at 50 mg/kg (Mus musculus, 6C3HED, po, read-out: % inhibition of tumor growth, oral, 50 mg/kg, DX 8): 95% | Tox/Tot (mice which died / total) (oral, 25 mg/kg, DX 8): 0/10 | Tox/Tot (mice which died / total) (oral, 50 mg/kg, DX 8): 0/10

NS(=O)(=NC(=O)Nc1ccc(Cl)cc1)c1ccc(Br)cc1 (stereo not shown) [Example 30]
inhibition in vivo at 9 mg/kg (Mus musculus, 6C3HED, po, read-out: % inhibition of tumor growth, oral, 9.00 mg/kg, BIDX 8): 4% | inhibition in vivo at 18.75 mg/kg (Mus musculus, 6C3HED, po, read-out: % inhibition of tumor growth, oral, 18.75 mg/kg, BIDX 8): 19% | inhibition in vivo at 37.5 mg/kg (Mus musculus, 6C3HED, po, read-out: % inhibition of tumor growth, oral, 37.5 mg/kg, BIDX 8): 42% | inhibition in vivo at 50 mg/kg (Mus musculus, 6C3HED, po, read-out: % inhibition of tumor growth, oral, 50 mg/kg, BIDX 8): 55% | inhibition in vivo at 75 mg/kg (Mus musculus, 6C3HED, po, read-out: % inhibition of tumor growth, oral, 75 mg/kg, BIDX 8): 67% | inhibition in vivo at 150 mg/kg [1]: 99% | Tox/Tot (mice which died / total) (oral, 9.00 mg/kg, BIDX 8): 0/10 | Tox/Tot (mice which died / total) (oral, 18.75 mg/kg, BIDX 8): 1/10 | Tox/Tot (mice which died / total) (oral, 37.5 mg/kg, BIDX 8): 1/10 | Tox/Tot (mice which died / total) (oral, 50 mg/kg, BIDX 8): 0/10 | Tox/Tot (mice which died / total) (oral, 75 mg/kg, BIDX 8): 0/10 | % inhibition of tumor growth (oral, 150 mg/kg, BIDX 8): 89% | Tox/Tot (mice which died / total) (oral, 150 mg/kg, BIDX 8): 3/10 and 1/10 | % inhibition of tumor growth (oral, 300 mg/kg, BIDX 8): TOX | Tox/Tot (mice which died / total) (oral, 300 mg/kg, BIDX 8): 10/10

CCCNS(=O)(=NC(=O)Nc1ccc(Cl)cc1)c1ccc(C)cc1 (stereo not shown) [Example 5]
Tox/Tot (mice which died / total) (IP, 150 mg/kg, DX 8): 0/10 | Tox/Tot (mice which died / total) (IP, 300 mg/kg, DX 8): 0/10 | inhibition in vivo at 150 mg/kg (Mus musculus, 6C3HED, ip, read-out: % inhibition of tumor growth, IP, 150 mg/kg, DX 8): 34% | inhibition in vivo at 300 mg/kg [3]: 44% | inhibition in vivo at 150 mg/kg [4]: 64% | inhibition in vivo at 300 mg/kg [5]: 69% | Tox/Tot (mice which died / total) (oral, 150 mg/kg, DX 8): 0/10 | Tox/Tot (mice which died / total) (oral, 300 mg/kg, DX 8): 0/10

CCCCCCNS(=O)(=NC(=O)Nc1ccc(Cl)cc1)c1ccc(C)cc1 (stereo not shown) [Example 9]
inhibition in vivo at 150 mg/kg [1]: 65% | inhibition in vivo at 300 mg/kg [2]: 79% | Tox/Tot (mice which died / total) (oral, 150 mg/kg, BIDX 8): 0/10 | Tox/Tot (mice which died / total) (oral, 300 mg/kg, BIDX 8): 2/10
